Experimental findings from patent publication US11739100B2, “2,3-dihydro-1h-imidazo{1,2-a}pyrimidin-5-one and this 1,2,3,4-tetrahydropyrimido{1,2-a}pyrimidin-6-one derivatives comprising a substituted morpholine, preparation thereof and pharmaceutical use thereof” (SANOFI, priority 2012, dated 2023) are described below.

Where only a bound is given, the exact number is not on record here.

In the assay the target is T1, recombinant Vps34 (Homo sapiens, UniProt Q8NEB9).
T1 construct: purchased Invitrogen PV5126
T1 sequence (Q8NEB9 whole entry): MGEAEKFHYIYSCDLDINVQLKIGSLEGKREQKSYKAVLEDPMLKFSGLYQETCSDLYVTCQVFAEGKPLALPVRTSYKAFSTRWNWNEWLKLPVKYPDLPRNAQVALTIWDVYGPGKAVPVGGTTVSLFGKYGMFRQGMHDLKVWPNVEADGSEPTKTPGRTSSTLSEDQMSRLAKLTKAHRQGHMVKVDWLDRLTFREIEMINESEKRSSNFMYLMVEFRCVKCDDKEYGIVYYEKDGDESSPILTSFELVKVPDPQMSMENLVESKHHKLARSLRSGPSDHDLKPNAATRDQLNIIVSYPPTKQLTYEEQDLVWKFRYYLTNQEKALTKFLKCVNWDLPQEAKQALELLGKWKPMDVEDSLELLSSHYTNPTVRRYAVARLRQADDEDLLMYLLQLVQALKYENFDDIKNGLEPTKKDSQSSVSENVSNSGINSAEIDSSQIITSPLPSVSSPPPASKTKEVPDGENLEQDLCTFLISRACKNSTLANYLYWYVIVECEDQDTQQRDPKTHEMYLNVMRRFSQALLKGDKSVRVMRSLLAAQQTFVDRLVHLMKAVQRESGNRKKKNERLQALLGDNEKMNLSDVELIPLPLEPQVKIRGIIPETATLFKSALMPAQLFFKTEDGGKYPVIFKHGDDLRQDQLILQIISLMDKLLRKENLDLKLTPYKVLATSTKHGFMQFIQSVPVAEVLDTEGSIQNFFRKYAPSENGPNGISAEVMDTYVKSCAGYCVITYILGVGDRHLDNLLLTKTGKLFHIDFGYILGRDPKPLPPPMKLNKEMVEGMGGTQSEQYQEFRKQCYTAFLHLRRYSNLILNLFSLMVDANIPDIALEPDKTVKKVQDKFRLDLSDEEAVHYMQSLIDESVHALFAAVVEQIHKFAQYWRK
In words: Phosphorylation of phosphatidylinositol (PI) by Vps34 in vitro, ADP detected by TR-FRET (HTRF Transcreener ADP). The class given is biochemical. To be noted: 10 μM ATP, 55 μg/ml PI, approximately 3 nM Vps34, 1 hour at ambient temperature; absolute IC50, mean of two independent experiments; read-out: IC50 activity range.

As to `C[C@@H]1COCCN1c1cc(=O)n2c(n1)N(CCO)[C@H](C(F)(F)F)CC2` [Example 315, (S)-9-(2-Hydroxy-ethyl)-2-((R)-3-methyl-morpholin-4-yl)-8-trifluoromethyl-6,7,8,9-tetrahydro-pyrimido[1,2-a]-pyrimidin-4-one], the IC50 was under 10 nM.
For the compound `C[C@@H]1COCCN1c1nc2n(c(=O)c1F)CC[C@@H](C(F)(F)F)N2CC(=O)N1CCCCO1` [Example 317, (S)-3-Fluoro-2-((R)-3-methylmorpholin-4-yl)-9-(2-[1,2]oxazinan-2-yl-2-oxoethyl)-8-trifluoromethyl-6,7,8,9-tetrahydropyrimido-[1,2-a]pyrimidin-4-one], the IC50 is under 10 nM.
Under `C[C@@H]1COCCN1c1cc(=O)n2c(n1)N(CC(=O)N1CCCCO1)[C@H](C(F)(F)F)CC2` [Example 318, (S)-2-((R)-3-Methyl-morpholin-4-yl)-9-(2-[1,2]oxazinan-2-yl-2-oxoethyl)-8-trifluoromethyl-6,7,8,9-tetrahydropyrimido-[1,2-a]pyrimidin-4-one] stands under 10 nM; under `C[C@@H]1COCCN1c1cc(=O)n2c(n1)N(CC(=O)N1CCCO1)[C@H](C(F)(F)F)CC2` [Example 319, (S)-9-(2-Isoxazolidin-2-yl-2-oxoethyl)-2-((R)-3-methyl-morpholin-4-yl)-8-trifluoromethyl-6,7,8,9-tetrahydropyrimido-[1,2-a]pyrimidin-4-one], under 10 nM; under `CC1CN(c2cc(=O)n3c(n2)N(CC(=O)C(C)C)[C@H](C(F)(F)F)CC3)CCO1` (stereo partly drawn) [Example 320, (S)-2-(2-Methyl-morpholin-4-yl)-9-(3-methyl-2-oxobutyl)-8-trifluoromethyl-6,7,8,9-tetrahydropyrimido-[1,2-a]pyrimidin-4-one], 10 to 100 nM.
Under `C[C@H]1COCCN1c1nc2n(c(=O)c1F)CC[C@@H](C(F)(F)F)N2CC(=O)C1CC1` [Example 321, (S)-9-(2-Cyclopropyl-2-oxoethyl)-3-fluoro-2-((S)-3-methyl-morpholin-4-yl)-8-trifluoromethyl-6,7,8,9-tetrahydropyrimido-[1,2-a]pyrimidin-4-one] stands 10 to 100 nM.
Under `CC(=O)CN1c2nc(N3CCOC[C@H]3C)cc(=O)n2CC[C@@]1(C)C(F)(F)F` [Example 327, (S)-8-Methyl-2-((R)-3-methylmorpholin-4-yl)-9-(2-oxopropyl)-8-trifluoromethyl-6,7,8,9-tetrahydropyrimido-[1,2-a]pyrimidin-4-one] stands under 10 nM; under `C[C@@H]1COCCN1c1cc(=O)n2c(n1)N(CC(=O)N1CC3(CCO3)C1)[C@H](C(F)(F)F)CC2` [Example 330, (S)-2-((R)-3-Methyl-morpholin-4-yl)-9-[2-(1-oxa-6-aza-spiro[3.3]hept-6-yl)-2-oxoethyl]-8-trifluoromethyl-6,7,8,9-tetrahydropyrimido-[1,2-a]pyrimidin-4-one], 10 to 100 nM; under `C[C@@H]1COCCN1c1nc2n(c(=O)c1F)CC[C@@H](C(F)(F)F)N2CC(=O)N1CC2(CCO2)C1` [Example 333, (S)-3-Fluoro-2-((R)-3-methylmorpholin-4-yl)-9-[2-(1-oxa-6-aza-spiro[3.3]hept-6-yl)-2-oxoethyl]-8-trifluoromethyl-6,7,8,9-tetrahydropyrimido-[1,2-a]pyrimidin-4-one], under 10 nM.
